The target in assay [1] is T1, Cyclin-C (Homo sapiens, UniProt P24863).
T1 sequence (P24863 whole entry): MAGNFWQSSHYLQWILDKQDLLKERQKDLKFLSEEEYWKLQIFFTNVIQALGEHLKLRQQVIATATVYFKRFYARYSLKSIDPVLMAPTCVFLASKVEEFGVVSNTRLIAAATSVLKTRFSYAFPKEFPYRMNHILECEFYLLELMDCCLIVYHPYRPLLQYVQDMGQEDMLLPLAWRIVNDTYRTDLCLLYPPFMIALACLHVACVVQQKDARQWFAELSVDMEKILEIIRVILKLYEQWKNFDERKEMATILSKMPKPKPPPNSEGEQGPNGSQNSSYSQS
The experiment in a line: Inhibition of recombinant full-length human His-tagged CDK8/cyclinC expressed in baculovirus expression system by Lantha screen assay.

Assay [2] deals with T1, Cyclin-C. Description: Displacement of Kinase tracer 236 from recombinant full-length human N-terminal GST-fused CDK8 (1 to 464 residues)/cyclin C (1 to 283 residues) expressed in baculovirus expression system after 60 mins by TR-FRET assay. (Time-resolved FRET reads energy transfer from a long-lived donor to a nearby acceptor.)

pIC50: −log10 of the molar value.

Consider two compounds from BindingDB's records for doi:10.1016/j.ejmech.2018.11.076 (Shaoxing University, 2019).

Usually pIC50 stands for −log10 of the IC50, conventionally taken in molar units.

In the case of `CC1CCc2nc(N)c(C#N)c(-c3cccnc3)c2C1` (configuration not stated) [2-azanyl-6-methyl-4-pyridin-3-yl-5,6,7,8-tetrahydroquinoline-3-carbonitrile], the negative-log IC50 (pIC50) at Cyclin-C [1] was 6.30. In the case of `Cc1ncccc1Oc1sc(C(N)=O)c2c1-c1c(cnn1C)CC2`, the pIC50 on Cyclin-C [2] was 8.80.
